Experimental data reported in PubChem BioAssay (NCI).
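Compound exposure: 48 hours, 5 concentrations, 96-well plates. At the GI50, growth is halved. The concentration for full growth arrest is given as TGI.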

Legend:
Experiment in all cases: DTP human tumour cell line panel, 48 h
[1] = tested on: DMS 114 small cell lung
[2] = tested on: SNB-78 CNS
[3] = tested on: KM20L2 colon
[4] = tested on: DLD-1 colon
[5] = tested on: LXFL 529 NSCLC
[6] = tested on: DMS 273 small cell lung
[7] = tested on: HOP-18 NSCLC
[8] = tested on: XF 498 CNS
[9] = tested on: RXF-631 renal

Structure (SMILES) | TGI [1] [µM] | TGI [2] [µM] | TGI [3] [µM] | TGI [4] [µM] | TGI [5] [µM] | TGI [6] [µM] | TGI [7] [µM] | TGI [8] [µM] | TGI [9] [µM] | GI50 [9] [µM]
CC12CCC(=O)N1c1ccc([N+](=O)[O-])cc1N2 (stereo unspecified) | > 100 | > 100 | > 100 | > 100 | > 100 | > 100 | > 100 |  |  | 
CCCCC1(C)C=C/C(=C2/C(=O)O/C(=C\C(=O)O)C2=O)O1 (stereo unspecified) |  | > 100 | > 100 |  | > 100 | > 100 | > 100 | > 100 | > 100 | 
Nc1c([N+](=O)[O-])nc(Cl)c2nncn12 | > 57.4 | > 100 | > 100 | > 100 | > 100 | 31.3 | > 100 | > 100 | > 100 | 
CC1(c2ccccc2Cl)C(C#N)C(=O)NC(=O)C1C#N (stereo unspecified) | > 100 | > 100 | > 100 | > 100 | > 100 | > 100 |  |  |  | 
[O-]c1c2cc(-[n+]3c(-c4ccccc4)cc(-c4ccccc4)cc3-c3ccccc3)cc1COCCOCCOCCOCCOC2 |  |  | > 100 | > 100 | 55 | > 100 | > 100 |  |  | 
O=C(c1nc2ccccc2[nH]c1=O)C(O)c1ccccc1 (stereo unspecified) | > 100 | > 100 | > 100 | > 100 | > 100 | > 100 |  |  |  | 
CC(=O)OCCOCNC(=S)N/N=C/c1cc(Br)cs1 | > 100 | > 100 | > 100 | > 100 | > 100 | > 100 | > 100 | > 100 | > 100 | 
CC1(C)CC(=O)C(/C(=N/NC(=S)NN)C(=O)Nc2nc3ccc([N+](=O)[O-])cc3s2)C(=O)C1 | > 100 | > 100 | > 100 | > 100 | > 100 |  | > 100 | > 100 |  | 
COc1ccc(CCC2c3cc(OC)c(OC)cc3CCN2C)cc1OC (stereo unspecified) | > 100 | > 100 | > 100 | > 100 | > 100 |  | > 100 |  |  | 
O=C(CCC1C(=O)NC(=S)NC1=O)c1ccc2ccccc2c1 | > 100 | > 100 | > 100 | > 100 | > 100 | > 100 | > 100 |  |  | 
C/C=C/C#CC#C/C=C/C=C/C(O)CCO (stereo unspecified) | > 23.1 | > 23.1 | > 23.1 | > 23.1 | > 23.1 | > 23.1 | > 23.1 | > 23.1 |  | 
C=C1CCC2[C@@H](CCC3[C@]2(C)CCC[C@]3(C)C(=O)OC)C1CC=O (stereo partly specified) | 34.7 | 34.1 | 35.7 | 42.9 | 30.1 | 40.7 | 29 | 28.6 | 37.2 | 20.9
CCN(CC)c1ccc2c(c1)Oc1ccc(N(CC)CC)cc1C21Oc2ccccc2-c2c1c1ccccc1n2CC (stereo unspecified) | 3.61 | > 100 | > 100 | > 100 | > 100 | > 100 | > 100 | 4.08 | > 100 | 
C/C(=C\CBr)CCC(Br)C(C)(C)Cl (stereo unspecified) | > 100 | > 100 |  | > 100 | > 100 | > 100 | > 100 |  |  | 
CN(C)C(=NCc1ccccc1)NC#N |  | > 100 | > 100 | > 100 | > 100 | > 100 |  |  |  | 
CCOC(=O)/C(C#N)=C(O)/C(=C\c1ccc(Br)cc1)NC(=O)c1ccccc1 | > 100 | > 100 | > 100 | > 100 | > 100 | > 100 | > 100 |  | > 100 | 
CCOP1(=O)C=C(C)C(Cl)=C(C)C1 (stereo unspecified) | 44.9 |  | > 100 | > 100 | 44.5 | 30.8 | > 100 | 75.2 | 30.5 | 
COC(=O)[C@@]1(C(C)CC(=O)O)CCCCC1=O (stereo partly specified) | > 100 | > 100 | > 100 | > 100 | > 100 | 39.7 | > 100 | > 100 |  | 
